Species: Rattus norvegicus
Experiment: DrugMatrix - Regimen: Daily Repeat
Format: toxicity, organism-based, Sprague-Dawley
Design: regimen Daily Repeat, gender Male, age 6-8 weeks
Conditions: in vivo, po, route oral GAVAGE, vehicle .5 % CMC; for ABSOLUTE BASOPHIL / ABSOLUTE EOSINOPHIL / ABSOLUTE LYMPHOCYTE / ABSOLUTE MONOCYTE / ABSOLUTE SEGMENTED NEUTROPHIL / BASOPHIL / EOSINOPHIL / ERYTHROCYTE COUNT / HEMATOCRIT / HEMOGLOBIN / LEUKOCYTE COUNT / LYMPHOCYTE / MEAN CORPUSCULAR HEMOGLOBIN / MEAN CORPUSCULAR HEMOGLOBIN CONCENTRATION / MEAN CORPUSCULAR VOLUME / MONOCYTE / NEUTROPHIL / NUCLEATED RED BLOOD CELLS / PLATELET COUNT: tissue Blood; for ALANINE AMINOTRANSFERASE / ALBUMIN / ALKALINE PHOSPHATASE / ASPARTATE AMINOTRANSFERASE / BLOOD UREA NITROGEN / CARBON DIOXIDE / CHLORIDE / CHOLESTEROL / CREATINE PHOSPHOKINASE / CREATININE / GLUCOSE / LACTATE DEHYDROGENASE / LIPASE / PHOSPHORUS / POTASSIUM / SODIUM / TOTAL BILIRUBIN / TOTAL PROTEIN / URIC ACID: tissue Plasma
[1] = 75 mg/kg, 120 h, dose level High, time 5 day
[2] = […], 72 h, dose 7.5 mg/Kg, dose level Low, time 3 day
[3] = […], 120 h, dose 7.5 mg/Kg, dose level Low, time 5 day

Compound: Cc1ccc(/N=C/N(C)/C=N/c2ccc(C)cc2C)c(C)c1 [AMITRAZ]
- ABSOLUTE BASOPHIL [1]: 0 CELLS/uL
- ABSOLUTE EOSINOPHIL [1]: 78.67 CELLS/uL
- ABSOLUTE LYMPHOCYTE [1]: 10570.33 CELLS/uL
- ABSOLUTE MONOCYTE [1]: 41.33 CELLS/uL
- ABSOLUTE SEGMENTED NEUTROPHIL [1]: 1409.67 CELLS/uL
- BASOPHIL [1]: 0%
- EOSINOPHIL [1]: 0.67%
- ERYTHROCYTE COUNT [1]: 6.55 x10E6/uL
- HEMATOCRIT [1]: 40.27%
- HEMOGLOBIN [1]: 16.2 G/DL
- LEUKOCYTE COUNT [1]: 12.1 x10E3/uL
- LYMPHOCYTE [1]: 87.33%
- MEAN CORPUSCULAR HEMOGLOBIN [1]: 24.73 pg
- MEAN CORPUSCULAR HEMOGLOBIN CONCENTRATION [1]: 40.2 G/DL
- MEAN CORPUSCULAR VOLUME [1]: 61.53 fL
- MONOCYTE [1]: 0.33%
- NEUTROPHIL [1]: 11.67%
- NUCLEATED RED BLOOD CELLS [1]: 0 /100WBC
- PLATELET COUNT [1]: 1330 x10E3/uL
- ALANINE AMINOTRANSFERASE [1]: 42.33 u/L
- ALBUMIN [1]: 4.3 G/DL
- ALKALINE PHOSPHATASE [1]: 203.33 u/L
- ASPARTATE AMINOTRANSFERASE [1]: 91.33 u/L
- BLOOD UREA NITROGEN [1]: 18.67 mg/dL
- CARBON DIOXIDE [1]: 21.67 mmol/L
- CHLORIDE [1]: 104.33 MEQ/L
- CHOLESTEROL [1]: 74 mg/dL
- CREATINE PHOSPHOKINASE [1]: 460.67 u/L
- CREATININE [1]: 0.26 mg/dL
- GLUCOSE [1]: 172 mg/dL
- LACTATE DEHYDROGENASE [1]: 250.67 u/L
- LIPASE [1]: 11.67 u/L
- PHOSPHORUS [1]: 15.2 mg/dL
- POTASSIUM [1]: 7.47 MEQ/L
- SODIUM [1]: 148.4 MEQ/L
- TOTAL BILIRUBIN [1]: 0.2 mg/dL
- TOTAL PROTEIN [1]: 6.17 G/DL
- URIC ACID [1]: 2.83 mg/dL
- ABSOLUTE BASOPHIL [2]: 0 CELLS/uL
- ABSOLUTE EOSINOPHIL [2]: 136 CELLS/uL
- ABSOLUTE LYMPHOCYTE [2]: 19510 CELLS/uL
- ABSOLUTE MONOCYTE [2]: 209.33 CELLS/uL
- ABSOLUTE SEGMENTED NEUTROPHIL [2]: 1444.67 CELLS/uL
- BASOPHIL [2]: 0%
- EOSINOPHIL [2]: 0.67%
- ERYTHROCYTE COUNT [2]: 5.3 x10E6/uL
- HEMATOCRIT [2]: 33.37%
- HEMOGLOBIN [2]: 13.33 G/DL
- LEUKOCYTE COUNT [2]: 21.3 x10E3/uL
- LYMPHOCYTE [2]: 91.33%
- MEAN CORPUSCULAR HEMOGLOBIN [2]: 25.17 pg
- MEAN CORPUSCULAR HEMOGLOBIN CONCENTRATION [2]: 39.97 G/DL
- MEAN CORPUSCULAR VOLUME [2]: 63.07 fL
- MONOCYTE [2]: 1%
- NEUTROPHIL [2]: 7%
- NUCLEATED RED BLOOD CELLS [2]: 0.33 /100WBC
- PLATELET COUNT [2]: 1400.67 x10E3/uL
- ALANINE AMINOTRANSFERASE [2]: 46.33 u/L
- ALBUMIN [2]: 4.13 G/DL
- ALKALINE PHOSPHATASE [2]: 272 u/L
- ASPARTATE AMINOTRANSFERASE [2]: 87.67 u/L
- BLOOD UREA NITROGEN [2]: 17.33 mg/dL
- CARBON DIOXIDE [2]: 25.33 mmol/L
- CHLORIDE [2]: 103.33 MEQ/L
- CHOLESTEROL [2]: 75.67 mg/dL
- CREATINE PHOSPHOKINASE [2]: 199.33 u/L
- CREATININE [2]: 0.22 mg/dL
- GLUCOSE [2]: 185.67 mg/dL
- LACTATE DEHYDROGENASE [2]: 127 u/L
- LIPASE [2]: 8.67 u/L
- PHOSPHORUS [2]: 11.97 mg/dL
- POTASSIUM [2]: 6.06 MEQ/L
- SODIUM [2]: 144.17 MEQ/L
- TOTAL BILIRUBIN [2]: 0.23 mg/dL
- TOTAL PROTEIN [2]: 5.7 G/DL
- URIC ACID [2]: 2.07 mg/dL
- ABSOLUTE BASOPHIL [3]: 0 CELLS/uL
- ABSOLUTE EOSINOPHIL [3]: 0 CELLS/uL
- ABSOLUTE LYMPHOCYTE [3]: 13348 CELLS/uL
- ABSOLUTE MONOCYTE [3]: 98 CELLS/uL
- ABSOLUTE SEGMENTED NEUTROPHIL [3]: 1187.33 CELLS/uL
- BASOPHIL [3]: 0%
- EOSINOPHIL [3]: 0%
- ERYTHROCYTE COUNT [3]: 5.41 x10E6/uL
- HEMATOCRIT [3]: 34.03%
- HEMOGLOBIN [3]: 13.6 G/DL
- LEUKOCYTE COUNT [3]: 14.63 x10E3/uL
- LYMPHOCYTE [3]: 91.33%
- MEAN CORPUSCULAR HEMOGLOBIN [3]: 25.17 pg
- MEAN CORPUSCULAR HEMOGLOBIN CONCENTRATION [3]: 39.93 G/DL
- MEAN CORPUSCULAR VOLUME [3]: 63.03 fL
- MONOCYTE [3]: 0.67%
- NEUTROPHIL [3]: 8%
- NUCLEATED RED BLOOD CELLS [3]: 0.33 /100WBC
- PLATELET COUNT [3]: 1467.33 x10E3/uL
- ALANINE AMINOTRANSFERASE [3]: 52.67 u/L
- ALBUMIN [3]: 4.13 G/DL
- ALKALINE PHOSPHATASE [3]: 370.67 u/L
- ASPARTATE AMINOTRANSFERASE [3]: 78.67 u/L
- BLOOD UREA NITROGEN [3]: 18 mg/dL
- CARBON DIOXIDE [3]: 30.67 mmol/L
- CHLORIDE [3]: 99.67 MEQ/L
- CHOLESTEROL [3]: 63 mg/dL
- CREATINE PHOSPHOKINASE [3]: 265.67 u/L
- CREATININE [3]: 0.18 mg/dL
- GLUCOSE [3]: 137.33 mg/dL
- LACTATE DEHYDROGENASE [3]: 130 u/L
- LIPASE [3]: 9 u/L
- PHOSPHORUS [3]: 11.77 mg/dL
- POTASSIUM [3]: 6.67 MEQ/L
- SODIUM [3]: 143.1 MEQ/L
- TOTAL BILIRUBIN [3]: 0.2 mg/dL
- TOTAL PROTEIN [3]: 5.9 G/DL
- URIC ACID [3]: 1.83 mg/dL
